Results: patent US8680094B2, “1, 4-benzoxazine compounds and derivatives thereof as therapeutic drugs for the treatment of neurodegenerative conditions” (Board of Regents, The University of Texas System, priority 2008, dated 2014)

Assays:
Assay in all cases: In vitro kinase activity
Format in all cases: biochemical
[1] = target: T1, c-Raf (Homo sapiens, UniProt P04049); conditions: percentage of control assays without compound, mean of duplicate
T1 construct: in some cases SignalChem; host or cells: Sf9 insect cells (baculovirus)
Procedure: (§1) To better understand the mechanism of action of the compounds of the present invention, but in no way a limitation; the effects of HSB-13 and ASK-2a on 20 different kinases were examined in vitro. At 500 nM concentration, ASK-2a inhibited the kinase activities of GSK3α, GSK3β, p38α, p38β, JNK3, MLK3, and B-Raf substantially. […] As described above, ASK-2a protects cerebellar granule neurons against LK-induced death but is ineffective against HCA-induced toxicity of HT-22 cells. In contrast, HSB-13 is protective in both paradigms. […] Previous studies have established that CDK inhibitors can protect neurons against a number of different apoptotic stimuli.
(§2) The activity of each kinase was measured in vitro in the presence either 100 nM or 500 nM ASK-2a. Kinase activity is expressed as a percentage of that in control assays (without ASK-2a). The values are mean of assays performed in duplicate. Substantial inhibition of kinase activity (>20%) is in bold type.
(§3) Table 3: Effect of HSB-13 at 500 nM on 20 different kinases measured in vitro. Kinase activity is expressed as a percentage of that in control assays (without HSB-13). The values are mean of assays performed in duplicate. Substantial inhibition of kinase activity (>20%) is in bold type.
Effect of chemical compounds c-Raf and B-Raf purified from insect cells. In vitro kinase assays were performed using purified kinase (expressed by baculovirus in Sf9 insect cells) and synthetic substrates under standard conditions using the Kinase Profiling service of Upstate Biotechnology. Briefly, for each assay 5-10 mU of purified kinase is incubated with the chemical compound (0.1-1 uM concentration) in a buffer containing 8 mM MOPS, pH 7.2, 0.2 mM EDTA, 10 mM Mg Acetate and [γ-^33P-ATP] for 40 min at room temperature. MBP is used as substrate. Kinase activity is quantified by measuring ^33P incorporation by spotting an aliquot on P30 filters, washing in 50 mM phosphoric acid and scintillation counting.
In some cases, effects on c-Raf and B-Raf are assayed by SignalChem as follows. Protein kinase assays (in duplicate or triplicate) were performed at ambient temperature for 20-40 minutes in a final volume of 25 μl. The assay was initiated by the addition of ^33P-ATP and the reaction mixture incubated at ambient temperature for 20-40 minutes, depending on the protein kinase target. After the incubation period, the assay was terminated by spotting 10 μl of the reaction mixture onto Multiscreen phosphocellulose P81 plate. The Multiscreen phosphocellulose P81 plate was washed 3 times for approximately 15 minutes each in a 1% phosphoric acid solution.
The radioactivity on the P81 plate was counted in the presence of scintillation fluid in a Trilux scintillation counter. Blank control is included all the assay components except the addition of the appropriate substrate (replace with equal volume of assay dilution buffer), was set up for each protein kinase target. The corrected activity for each protein kinase target was determined by removing the blank control value.

[2] = target: p38α (Homo sapiens, UniProt Q16539); conditions: percentage of control assays without compound, mean of duplicate
Procedure: as §1, §2, §3

[3] = target: JNK2 (Homo sapiens, UniProt P45984); conditions: percentage of control assays without compound, mean of duplicate
Procedure: as §1, §2, §3

[4] = target: CDK1/Cylcin A1 (Homo sapiens, UniProt P06493); conditions: percentage of control assays without compound, mean of duplicate
Procedure: as §1, §2, §3

[5] = target: CDK1/Cyclin B1 (Homo sapiens, UniProt P06493); conditions: percentage of control assays without compound, mean of duplicate
Procedure: as §1, §2, §3

[6] = target: JNK3 (Homo sapiens, UniProt P53779); conditions: percentage of control assays without compound, mean of duplicate
Procedure: as §1, §2, §3

[7] = target: LRRK2 (Homo sapiens, UniProt Q5S007); conditions: percentage of control assays without compound, mean of duplicate
Procedure: as §1, §2, §3

[8] = target: CDK5/p25 (Homo sapiens, UniProt Q00535); conditions: percentage of control assays without compound, mean of duplicate
Procedure: as §1, §2, §3

[9] = target: MEKK1 (Homo sapiens, UniProt Q13233); conditions: percentage of control assays without compound, mean of duplicate
Procedure: as §1, §2, §3

[10] = target: MLK3 (Homo sapiens, UniProt Q16584); conditions: 100 nM, percentage of control assays without compound, mean of duplicate
Procedure: as §1, §2, §3

[11] = 100 nM, listed as ASK2a, 0.1 µM

Chain of MLK3 (Q16584 whole entry, species assumed): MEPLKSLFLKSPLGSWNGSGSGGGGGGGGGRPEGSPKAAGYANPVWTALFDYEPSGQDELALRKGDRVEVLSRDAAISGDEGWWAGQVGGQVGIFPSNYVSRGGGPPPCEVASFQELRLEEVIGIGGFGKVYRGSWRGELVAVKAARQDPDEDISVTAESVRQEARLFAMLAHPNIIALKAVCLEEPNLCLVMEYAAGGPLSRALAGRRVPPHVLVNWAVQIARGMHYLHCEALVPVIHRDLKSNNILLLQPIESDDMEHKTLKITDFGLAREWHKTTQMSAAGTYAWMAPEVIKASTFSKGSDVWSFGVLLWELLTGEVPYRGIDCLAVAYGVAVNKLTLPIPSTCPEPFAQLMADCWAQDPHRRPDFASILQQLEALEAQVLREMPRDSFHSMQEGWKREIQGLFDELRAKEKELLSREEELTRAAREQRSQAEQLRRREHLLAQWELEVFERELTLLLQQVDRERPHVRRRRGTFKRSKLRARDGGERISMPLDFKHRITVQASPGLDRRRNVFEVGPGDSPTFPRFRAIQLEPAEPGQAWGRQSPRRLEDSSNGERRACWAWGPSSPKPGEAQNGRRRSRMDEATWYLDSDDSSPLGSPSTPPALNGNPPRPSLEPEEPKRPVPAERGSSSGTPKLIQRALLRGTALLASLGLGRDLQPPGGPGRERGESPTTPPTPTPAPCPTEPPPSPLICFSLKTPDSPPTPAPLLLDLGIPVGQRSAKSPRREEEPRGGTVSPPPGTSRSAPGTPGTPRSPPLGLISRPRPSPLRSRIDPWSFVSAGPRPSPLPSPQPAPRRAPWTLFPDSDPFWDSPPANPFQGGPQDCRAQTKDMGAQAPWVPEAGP
Chain of CDK1/Cylcin A1 (P06493 whole entry, species assumed): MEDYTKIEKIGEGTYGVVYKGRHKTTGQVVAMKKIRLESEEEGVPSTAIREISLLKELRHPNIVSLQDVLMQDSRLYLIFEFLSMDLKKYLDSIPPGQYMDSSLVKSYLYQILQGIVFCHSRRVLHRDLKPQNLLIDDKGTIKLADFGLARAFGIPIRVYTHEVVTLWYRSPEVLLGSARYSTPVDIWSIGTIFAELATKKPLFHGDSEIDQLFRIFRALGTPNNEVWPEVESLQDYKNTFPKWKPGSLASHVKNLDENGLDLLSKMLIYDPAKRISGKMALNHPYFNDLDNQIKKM
Chain of CDK1/Cylcin A1 (P78396 whole entry partner, species assumed): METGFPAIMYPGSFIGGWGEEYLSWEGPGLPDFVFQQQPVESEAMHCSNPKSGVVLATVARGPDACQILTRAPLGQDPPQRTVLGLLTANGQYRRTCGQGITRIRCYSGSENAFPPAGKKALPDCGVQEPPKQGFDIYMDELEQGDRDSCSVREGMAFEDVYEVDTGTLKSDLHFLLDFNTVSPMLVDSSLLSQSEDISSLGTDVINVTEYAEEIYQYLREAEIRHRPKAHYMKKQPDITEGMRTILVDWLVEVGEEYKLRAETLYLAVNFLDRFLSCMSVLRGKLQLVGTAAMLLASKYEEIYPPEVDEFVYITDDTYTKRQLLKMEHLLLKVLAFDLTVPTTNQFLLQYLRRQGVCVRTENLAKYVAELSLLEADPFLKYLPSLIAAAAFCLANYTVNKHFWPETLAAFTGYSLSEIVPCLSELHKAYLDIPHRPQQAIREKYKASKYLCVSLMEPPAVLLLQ
Chain of CDK1/Cyclin B1 (P06493 whole entry, species assumed): as the sequence (P06493 whole entry, species assumed) above
Chain of CDK1/Cyclin B1 (P14635 whole entry partner, species assumed): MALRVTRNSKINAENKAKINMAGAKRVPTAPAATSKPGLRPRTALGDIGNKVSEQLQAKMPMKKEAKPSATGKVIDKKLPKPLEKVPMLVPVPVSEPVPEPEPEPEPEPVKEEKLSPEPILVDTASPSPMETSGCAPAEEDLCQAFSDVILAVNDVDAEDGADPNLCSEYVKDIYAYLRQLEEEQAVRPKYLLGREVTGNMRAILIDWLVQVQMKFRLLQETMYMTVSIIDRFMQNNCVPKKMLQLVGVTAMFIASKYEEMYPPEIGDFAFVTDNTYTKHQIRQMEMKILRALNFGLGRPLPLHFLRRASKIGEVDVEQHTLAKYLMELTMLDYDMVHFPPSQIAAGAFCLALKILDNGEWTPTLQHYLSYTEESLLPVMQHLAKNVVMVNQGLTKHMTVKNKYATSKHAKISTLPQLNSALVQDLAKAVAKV
Chain of LRRK2 (Q5S007 whole entry, species assumed): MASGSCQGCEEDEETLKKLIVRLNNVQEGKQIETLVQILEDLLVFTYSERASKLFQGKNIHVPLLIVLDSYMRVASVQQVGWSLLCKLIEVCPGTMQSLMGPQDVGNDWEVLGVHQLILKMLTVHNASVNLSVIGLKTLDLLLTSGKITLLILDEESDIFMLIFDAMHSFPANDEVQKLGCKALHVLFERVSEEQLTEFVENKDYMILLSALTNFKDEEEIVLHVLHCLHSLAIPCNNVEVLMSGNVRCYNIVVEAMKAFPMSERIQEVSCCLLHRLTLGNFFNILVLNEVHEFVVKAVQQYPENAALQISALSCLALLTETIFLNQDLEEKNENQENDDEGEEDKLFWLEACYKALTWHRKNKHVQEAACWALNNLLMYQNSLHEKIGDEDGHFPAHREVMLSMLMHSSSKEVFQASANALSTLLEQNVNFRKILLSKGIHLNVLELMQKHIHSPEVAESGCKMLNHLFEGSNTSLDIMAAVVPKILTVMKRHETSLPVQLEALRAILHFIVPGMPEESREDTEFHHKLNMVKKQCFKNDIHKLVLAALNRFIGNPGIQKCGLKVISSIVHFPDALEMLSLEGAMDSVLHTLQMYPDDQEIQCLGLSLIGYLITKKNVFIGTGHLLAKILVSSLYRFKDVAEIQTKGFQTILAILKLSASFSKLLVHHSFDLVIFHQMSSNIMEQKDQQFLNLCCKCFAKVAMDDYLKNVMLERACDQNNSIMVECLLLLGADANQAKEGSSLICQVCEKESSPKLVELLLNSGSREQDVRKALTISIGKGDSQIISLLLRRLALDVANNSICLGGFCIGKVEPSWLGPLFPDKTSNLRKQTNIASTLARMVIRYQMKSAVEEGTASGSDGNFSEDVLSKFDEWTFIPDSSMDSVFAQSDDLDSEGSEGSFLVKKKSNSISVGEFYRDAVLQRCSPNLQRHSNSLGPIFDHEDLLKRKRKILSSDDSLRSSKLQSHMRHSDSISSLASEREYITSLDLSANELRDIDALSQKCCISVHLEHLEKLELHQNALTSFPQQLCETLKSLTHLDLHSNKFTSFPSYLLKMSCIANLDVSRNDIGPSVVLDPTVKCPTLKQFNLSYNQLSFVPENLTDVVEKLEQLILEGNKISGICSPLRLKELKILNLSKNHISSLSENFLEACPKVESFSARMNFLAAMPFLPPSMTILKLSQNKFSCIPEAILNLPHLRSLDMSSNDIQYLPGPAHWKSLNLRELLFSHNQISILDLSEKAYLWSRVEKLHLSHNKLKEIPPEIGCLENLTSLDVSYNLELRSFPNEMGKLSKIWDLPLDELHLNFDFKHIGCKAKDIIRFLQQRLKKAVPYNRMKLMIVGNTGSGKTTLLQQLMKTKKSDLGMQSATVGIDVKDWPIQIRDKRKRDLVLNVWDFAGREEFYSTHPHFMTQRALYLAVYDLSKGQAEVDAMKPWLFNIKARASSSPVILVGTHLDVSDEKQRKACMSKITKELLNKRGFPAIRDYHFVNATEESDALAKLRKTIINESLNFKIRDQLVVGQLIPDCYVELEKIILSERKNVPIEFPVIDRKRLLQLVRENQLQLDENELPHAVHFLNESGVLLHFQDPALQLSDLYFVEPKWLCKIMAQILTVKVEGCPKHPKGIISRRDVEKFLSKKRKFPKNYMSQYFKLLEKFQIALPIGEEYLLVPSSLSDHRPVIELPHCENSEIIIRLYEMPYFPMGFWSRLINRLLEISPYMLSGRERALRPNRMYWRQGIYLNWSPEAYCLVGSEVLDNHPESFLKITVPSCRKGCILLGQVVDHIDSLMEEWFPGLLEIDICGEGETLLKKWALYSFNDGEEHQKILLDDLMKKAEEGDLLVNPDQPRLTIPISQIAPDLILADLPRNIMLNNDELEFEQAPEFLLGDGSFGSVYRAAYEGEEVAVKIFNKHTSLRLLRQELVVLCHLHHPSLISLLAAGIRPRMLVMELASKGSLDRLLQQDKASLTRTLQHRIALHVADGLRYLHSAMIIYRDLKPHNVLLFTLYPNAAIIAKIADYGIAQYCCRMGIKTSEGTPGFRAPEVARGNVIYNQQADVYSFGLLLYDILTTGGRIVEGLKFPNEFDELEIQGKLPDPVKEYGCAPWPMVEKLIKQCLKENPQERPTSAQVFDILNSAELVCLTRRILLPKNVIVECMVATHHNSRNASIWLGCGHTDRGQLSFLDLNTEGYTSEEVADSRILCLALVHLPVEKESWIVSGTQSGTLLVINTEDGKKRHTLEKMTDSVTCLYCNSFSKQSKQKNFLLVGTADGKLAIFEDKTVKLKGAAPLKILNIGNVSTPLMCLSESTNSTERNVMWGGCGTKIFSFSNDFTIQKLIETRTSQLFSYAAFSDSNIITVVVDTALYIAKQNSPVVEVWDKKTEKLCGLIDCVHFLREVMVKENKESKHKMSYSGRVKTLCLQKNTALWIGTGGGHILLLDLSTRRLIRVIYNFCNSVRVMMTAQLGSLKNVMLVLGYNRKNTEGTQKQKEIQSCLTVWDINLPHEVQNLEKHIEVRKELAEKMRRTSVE

SMILES | % ACTIVITY ([1]; 100 nM) [%] | % ACTIVITY ([3]; 100 nM) [%] | % ACTIVITY ([4]; 100 nM) [%] | % ACTIVITY ([5]; 100 nM) [%] | % ACTIVITY ([7]; 100 nM) [%] | % ACTIVITY ([7]; 500 nM) [%] | % ACTIVITY ([8]; 100 nM) [%] | % ACTIVITY ([9]; 100 nM) [%] | % ACTIVITY ([9]; 500 nM) [%] | further results
O=C1Nc2ccccc2OC1=Cc1cc(Br)c(O)c(Br)c1 [ASK-2a] | 92 | 95 | 101 | 91 | 96 | 94 | 100 | 100 | 98 | % ACTIVITY ([1]; 500 nM): 88%; % ACTIVITY ([2]; 100 nM, 0.1 µM): 76%; % ACTIVITY [2, 11]: inhibited efficiently; % ACTIVITY ([3]; 500 nM): 93%; % ACTIVITY ([4]; 500 nM): 88%; % ACTIVITY ([5]; 500 nM): 98%; % ACTIVITY ([6]; 100 nM, 0.1 µM): 94%; % ACTIVITY [6, 11]: inhibited efficiently; % ACTIVITY ([8]; 500 nM): 96%; % ACTIVITY ([10]; 0.1 µM): 88%; % ACTIVITY ([10]; listed as ASK2a, 0.1 µM): inhibited less efficiently
Nc1ccc2c(c1)NC(=O)/C(=C/c1cc(Br)c(O)c(Br)c1)O2 [HSB-13, (Z)-6-amino-2-(3,′5′-dibromo-4′-hydrozybenzylidene)-2H-benzo[b][1,4]oxazin-3(4H)-one] | 97 | 98 | 95 | 90 | 97 | 88 | 84 | 99 | 98 | % ACTIVITY ([2]; 100 nM): 88%; % ACTIVITY ([2]; 500 nM): 43%; % ACTIVITY ([6]; 100 nM): 92%; % ACTIVITY ([6]; 500 nM): 92%; % ACTIVITY [10]: 94%
